Molecular target: T1, ACAT1 (Homo sapiens, UniProt P24752)
T1 construct: endogenous in cells; host or cells: HEK293T
T1 sequence (P24752 34-427): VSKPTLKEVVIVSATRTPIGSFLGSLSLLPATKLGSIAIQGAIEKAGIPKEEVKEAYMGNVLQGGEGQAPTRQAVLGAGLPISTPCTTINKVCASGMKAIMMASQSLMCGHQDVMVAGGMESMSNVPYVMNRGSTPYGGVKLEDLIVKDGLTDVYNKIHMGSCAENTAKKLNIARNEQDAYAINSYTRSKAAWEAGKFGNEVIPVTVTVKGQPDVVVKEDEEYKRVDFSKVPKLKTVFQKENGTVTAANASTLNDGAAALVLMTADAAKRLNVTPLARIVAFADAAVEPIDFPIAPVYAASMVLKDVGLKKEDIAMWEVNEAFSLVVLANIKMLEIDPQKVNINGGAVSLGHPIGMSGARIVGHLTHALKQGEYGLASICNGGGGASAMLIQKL
Test: Competitive ABPP (TMT) of cysteine engagement in ACAT1
Format: cell-based
Conditions: HEK293T, 1.5 h
Protocol: HEK293T cells were treated with DMSO (four biological replicates), 2 μM KB02-SLF (three biological replicates) or 20 μM KB02-JQ1 (three biological replicates) for 1.5 h (ten samples in total). Cells were collected, washed once with PBS and lysed in PBS by sonication (40%, 4, 20 pulses). Samples were clarified by centrifugation for 10 min at 8,000 g. Lysate was adjusted to 1.0 mg/mL in 500 μL. Samples were labeled with 100 μM iodoacetamide alkyne (5 μL of 10 mM stock in DMSO) at room temperature for 1 hour, conjugated by CuACC to desthiobiotin azide (10 μL of 5 mM stock in DMSO, final concentration=100 tris(2-carboxyethyl)phosphine hydrochloride (TCEP, 10 μL of 50 mM stock in H2O, final concentration=1 mM), TBTA (30 μL of 1.7 mM stock in 4:1 tBuOH:DMSO, final concentration=100 μM) and CuSO4 (10 μL of 50 mM stock in H2O, final concentration=1 mM). The samples were allowed to react for 1 hour at room temperature. Proteins were precipitated by adding 3.5 mL of H2O, 4 mL of methanol and 1.5 mL of chloroform, followed by centrifugation at 5,000 g for 15 min (4° C.). After aspirating the top layer, the protein pellets with bottom layer were washed with 8 mL cold methanol by centrifugation at 5,000 g for 15 min (4° C.). […]
The samples were analyzed in Orbitrap Fusion Tribrid mass spectrometer (Thermo Scientific) coupled to UltiMate 3000 HPLC system (Thermo Scientific). […]

engagement of ACAT1 C126 (KB02-JQ1 20 μM)	Compound	engagement of ACAT1 C126 (KB02-SLF 2 μM)
	CCC(C)(C)C(=O)C(=O)N1CCCC[C@H]1C(=O)O[C@H](CCc1ccc(OC)c(OC)c1)c1cccc(NC(=O)CCOCCOCCNC(=O)COc2ccc3c(c2)CCCN3C(=O)CCl)c1 [KB02-SLF, (R)-1-(3-(3-(2-(2-(2-((1-(2-chloroacetyl)-1,2,3,4-tetrahydroquinolin-6-yl)oxy)acetamido)ethoxy)ethoxy)propanamido)phenyl)-3-(3,4-dimethoxyphenyl)propyl (S)-1-(3,3-dimethyl-2-oxopentanoyl)piperidine-2-carboxylate]	fully engaged
fully engaged	Cc1sc2c(c1C)C(c1ccc(Cl)cc1)=N[C@@H](CC(=O)NCCOCCOCCNC(=O)COc1ccc3c(c1)CCCN3C(=O)CCl)c1nnc(C)n1-2 [KB02-JQ1, (S)-2-((1-(2-chloroacetyl)-1,2,3,4-tetrahydroquinolin-6-yl)oxy)-N-(2-(2-(2-(2-(4-(4-chlorophenyl)-2,3,9-trimethyl-6H-thieno[3,2-f][1,2,4]triazolo[4,3-a][1,4]diazepin-6-yl)acetamido)ethoxy)ethoxy)ethyl)acetamide]	

From patent US11691984B2, “Compounds and methods for DCAF-mediated protein degradation” (The Scripps Research Institute, priority 2018, dated 2023)
